Experimental data taken from PubChem BioAssay (NCI).
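Where inhibition never reached the appropriate level, the endpoint shown equals the highest concentration tested. Otherwise, values were interpolated linearly from a five-concentration, 48-hour dose response in 96-well plates. At the GI50, growth is halved. The concentration for full growth arrest is given as TGI.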

Tests used:
Assay in all cases: growth of human tumour cells (NCI), 48 h
UACC-62 melanoma = test system: UACC-62 melanoma
U251 CNS = test system: U251 CNS
RPMI-8226 leukemia = test system: RPMI-8226 leukemia
SF-268 CNS = test system: SF-268 CNS
NCI/ADR-RES ovarian = test system: NCI/ADR-RES ovarian
HOP-62 NSCLC = test system: HOP-62 NSCLC
PC-3 prostate = test system: PC-3 prostate
OVCAR-3 ovarian = test system: OVCAR-3 ovarian
TK-10 renal = test system: TK-10 renal
COLO 205 colon = test system: COLO 205 colon

| SMILES | GI50 (UACC-62 melanoma) [µM] | TGI (UACC-62 melanoma) [µM] | GI50 (U251 CNS) [µM] | TGI (U251 CNS) [µM] | GI50 (RPMI-8226 leukemia) [µM] | TGI (RPMI-8226 leukemia) [µM] | GI50 (SF-268 CNS) [µM] | TGI (SF-268 CNS) [µM] | GI50 (NCI/ADR-RES ovarian) [µM] | TGI (NCI/ADR-RES ovarian) [µM] | GI50 (HOP-62 NSCLC) [µM] | TGI (HOP-62 NSCLC) [µM] | GI50 (PC-3 prostate) [µM] | TGI (PC-3 prostate) [µM] | GI50 (OVCAR-3 ovarian) [µM] | TGI (OVCAR-3 ovarian) [µM] | GI50 (TK-10 renal) [µM] | TGI (TK-10 renal) [µM] | GI50 (COLO 205 colon) [µM] | TGI (COLO 205 colon) [µM] |
| --- | --- | --- | --- | --- | --- | --- | --- | --- | --- | --- | --- | --- | --- | --- | --- | --- | --- | --- | --- | --- |
| CC/C=C1/C(=O)C=C[C@@H]1C/C=C\CCCC(=O)OC | 1.97 | 4.6 | 2.75 | 9.96 | 0.699 | 5.54 | 3.03 | 13.1 | 2.88 | 14.5 | 3.39 | 11.9 | 3.02 | 8.56 | 3.05 | 10.2 | 4.07 | 14.5 | 2.4 | 5.18 |
| COc1ccc(-c2cn(-c3cc(OC)c(OC)c(OC)c3)c(SCc3ccccc3)n2)cc1OC | > 100 | > 100 | > 100 | > 100 | > 100 | > 100 | > 100 | > 100 | > 100 | > 100 | > 100 | > 100 | > 100 | > 100 | > 100 | > 100 | > 100 | > 100 | > 100 | > 100 |
| COC(=O)C1(C)CCC(c2ccc(C)cc2)=C(CC(=O)O)C1 (centres undefined) | – | > 100 | – | > 100 | – | > 100 | – | > 100 | – | > 100 | – | > 100 | – | > 100 | – | > 100 | – | > 100 | – | > 100 |
| COc1ccc(-c2c[nH]c(C(=O)O)c2-c2cc(OC)c(OC)c(OC)c2)cc1 | 4.13 | > 100 | 4.99 | > 100 | 4.24 | > 100 | > 100 | > 100 | 3.8 | > 100 | 5.87 | > 100 | 4.46 | > 100 | 2.74 | 8.05 | > 100 | > 100 | 3.31 | 17 |
| COc1c(C)c2c(c(O)c1C/C=C(\C)CCC(=O)O)C(=O)OC2 | 0.444 | > 100 | 0.0905 | > 100 | 0.518 | > 100 | 0.578 | > 100 | 0.514 | > 100 | 0.512 | > 100 | 0.61 | > 100 | 0.286 | > 100 | 1.68 | > 100 | 0.416 | > 100 |
| C=C(C)C(=O)O[C@H]1CC(=C)[C@@H]2C[C@H](O)[C@](O)(CCl)[C@@H]2[C@H]2OC(=O)C(=C)[C@@H]21 | 3.26 | 11.4 | 2.47 | 6.14 | 1.43 | 4.78 | 3.76 | 17.4 | 3.33 | 13.2 | 10.5 | 23.3 | 3.03 | 10.4 | 1.81 | 4.38 | 0.512 | 1.82 | 1.87 | 3.66 |
| FC(F)(F)c1ccc(Nc2nc(-c3c(C(F)(F)F)nc4ccccn34)cs2)cc1 | 0.0385 | 3.43 | 0.0764 | 11 | 0.0739 | 6.01 | 0.0754 | 10.7 | 0.035 | 2.07 | 0.0564 | 9.14 | 0.0425 | 8.54 | 0.0264 | 0.0787 | 0.917 | 8.12 | 0.0323 | 0.167 |
| Fc1ccc2c(c1)C1=NN(c3ccccc3)C(F)C1CO2 (centres undefined) | 6.43 | 14 | 7.29 | 15.3 | 9.04 | 33.4 | 7.52 | 23.2 | 7.57 | 18.9 | 19 | > 50 | 11.1 | > 50 | 6.14 | 19.1 | 12.5 | 35.6 | – | 30.9 |
| Nc1c(C(=O)c2cccc(-c3ccncc3)c2)cnn1-c1ccc(F)cc1F | 5.34 | > 25 | 12.6 | > 25 | 6.16 | > 25 | > 19.7 | > 25 | 3.83 | > 25 | 9.3 | > 25 | 4.83 | > 25 | 9.08 | > 25 | > 15 | > 25 | 2.09 | > 21.4 |
| O=C1c2ccccc2C(O)(O)C1(O)C1(O)C(=O)c2ccccc2C1(O)O (centres undefined) | – | > 100 | – | > 100 | – | > 100 | – | > 100 | – | > 100 | – | 54.1 | – | > 100 | – | 65.9 | – | 58.1 | – | 40.5 |
| C[C@H]1[C@H](C)CC[C@]2(CO)CC[C@]3(C)C(=CC[C@@H]4[C@@]5(C)CCCNC(C)(C)[C@@H]5CC[C@]43C)[C@H]12 | 1.85 | 3.35 | 1.67 | 3.15 | 1.85 | 4.14 | 1.79 | 3.5 | 1.76 | 3.47 | 1.81 | 3.43 | 1.55 | 2.96 | 1.83 | 3.42 | 1.84 | 3.32 | 1.74 | 3.46 |
| Cc1cc(O)c(C(C)C)cc1S(=O)(=O)O (tested in a mixture with another compound) | 0.566 | – | 0.368 | – | 0.357 | – | 0.797 | – | 0.658 | 4.79 | 0.442 | – | 0.318 | 9.01 | 0.259 | – | 1.22 | – | 0.224 | – |
| Cc1ccc(S(=O)(=O)N/N=C/c2c(O)ccc3ccccc23)cc1 | – | 49.4 | – | > 100 | – | > 100 | – | > 100 | – | > 100 | – | > 100 | – | 58.6 | – | 44.2 | – | > 100 | – | 37.4 |
| CN[C@@H](C)C(=O)N[C@H](C(=O)N1CCC[C@H]1C(=O)Nc1snnc1-c1ccccc1)C1CCCCC1 | 16.2 | 34.2 | 36.3 | > 100 | 43.9 | > 100 | > 86.1 | > 100 | 66.1 | > 100 | 26.5 | > 100 | 48.6 | > 100 | 58.5 | > 100 | > 59.9 | > 94.9 | 21.6 | 42.1 |
| COc1ccc2nc3cccc([N+](=O)[O-])c3c(NCCCCCC(=O)O)c2c1 | 0.183 | 0.465 | 0.0222 | 2.46 | 0.0131 | 0.052 | 0.0755 | 0.701 | 0.313 | 2.61 | 0.0277 | 0.187 | – | 1.36 | 0.12 | 2.64 | 1.72 | 17.6 | – | 0.078 |
| Cc1cc2c(cc1C)N(C(=O)CCl)CC(=O)N2 | 3.54 | 12.7 | 1.92 | 4.25 | 2.35 | 7.15 | 3.47 | 11.6 | 3.18 | > 100 | 3.3 | 12 | 4.48 | 18.9 | 1.89 | 3.33 | 2.11 | 3.59 | 2.09 | 3.68 |
| CN(O)c1nc(N(C)O)nc(N2CCOCC2)n1 | 4.12 | > 100 | 1.25 | > 100 | 3.85 | > 100 | 5.7 | > 100 | 2.56 | > 100 | 2.27 | > 100 | 7.82 | > 100 | 10.2 | > 100 | 5.89 | > 100 | 3.69 | > 100 |
| COc1ccc2cc(C(=O)/C=C/c3ccc(Cl)cc3Cl)ccc2c1 | 12 | 86.5 | 16.7 | 36.2 | 6.81 | > 100 | > 100 | > 100 | 23 | > 100 | 24 | 50.8 | 30.8 | > 100 | 16.8 | 43.9 | 27.7 | > 100 | 20.3 | 55.7 |
| CC(C)[C@H](N)C(=O)N1CCC[C@H]1B(O)O | > 100 | > 100 | > 100 | > 100 | > 100 | > 100 | > 100 | > 100 | > 100 | > 100 | > 100 | > 100 | > 100 | > 100 | > 100 | > 100 | > 100 | > 100 | > 100 | > 100 |
| C#Cc1c(F)ccc2cc(O)cc(-c3ncc4c(N5CC6CCC(C5)N6)nc(OC[C@@]56CCCN5C[C@H](F)C6)nc4c3F)c12 | 16.6 | 30.5 | 10.9 | 31.5 | 5.1 | 29.9 | 12 | 25.4 | > 100 | > 100 | 2.18 | 22.4 | 14.8 | 33.8 | 12.7 | 25.9 | 21.8 | > 55.5 | 16.1 | 45.1 |
| CCN(CC)CCCCNc1c2ccccc2[n+](C)c2c1[nH]c1ccccc12 | 0.0868 | 0.26 | 0.238 | 4.46 | 0.255 | 1.32 | 0.209 | 1.4 | 48.8 | > 100 | 0.683 | 6.15 | 0.355 | 2.29 | 0.433 | 3.56 | 2.52 | 12.6 | 0.189 | 0.983 |
| CC(=O)OCC1OC(n2cnc(C(N)=S)c2N)C(OC(C)=O)C1OC(C)=O (centres undefined) | – | > 100 | – | > 100 | – | > 100 | – | > 100 | – | > 100 | – | > 100 | – | > 100 | – | > 100 | – | > 100 | – | > 100 |
